The values below are quoted from earlier work in patent US20050272704A1, “Compounds, compositions and methods for stabilizing transthyretin and inhibiting transthyretin misfolding” (priority 2004, published 2005).

Like-named read-outs stand apart in the source and are kept apart here. Some results are limits rather than exact numbers.

As to `O=C(O)c1cc(-c2ccc(F)cc2F)ccc1O` [diflunisal], the “diflunisal concentration in blood” value (4 h after a single 500 mg dose) was greater than 300 µM and the “diflunisal concentration in blood” value (20 h after a single 500 mg dose) is recorded as “exceed 30 μM”.
